Read-outs that look alike come from different tables or passages of the source.
What was measured:
[1] = molecular target: T1, DGKα (Homo sapiens (Human), UniProt P23743); experiment: Assay 1: In Vitro DGK Inhibition Assays, Method A (DGKα LIPGLO, extruded liposome); format: biochemical; settings: extruded liposome substrate, 150 μM ATP
Protocol: (§1) Assay 1: In Vitro DGK Inhibition Assays—Method A
(§2) The DGKα and DGKζ reactions were performed using either extruded liposome (DGKα and DGKζ LIPGLO assays) or detergent/lipid micelle substrate (DGKα and DGKζ assays). The reactions were carried out in 50 mM MOPS pH 7.5, 100 mM NaCl, 10 mM MgCl2, 1 μM CaCl2), and 1 mM DTT (assay buffer). The reactions using a detergent/lipid micelle substrate also contained 50 mM octyl B-D-glucopyranoside. The lipid substrate concentrations were 11 mM PS and 1 mM DAG for the detergent/lipid micelle reactions. The lipid substrate concentrations were 2 mM PS, 0.25 mM DAG, and 2.75 mM PC for the extruded liposome reactions. The reactions were carried out in 150 μM ATP. The enzyme concentrations for the DGKα and DGKζ were 5 nM
(§3) The compound inhibition studies were carried out as follows: 50 nL droplets of each test compound (top concentration 10 mM with 11 point, 3-fold dilution series for each compound) solubilized in DMSO were transferred to wells of a white 1536 well plate (Corning 3725). A 5 mL enzyme/substrate solution at 2× final reaction concentration was prepared by combining 2.5 mL 4× enzyme solution (20 nM DGKα or DGKζ (prepared as described below) in assay buffer) and 2.5 mL of either 4× liposome or 4× detergent/lipid micelle solution (compositions described below) and incubated at room temperature for 10 minutes. Next, 1 μL 2× enzyme/substrate solution was added to wells containing the test compound and reactions were initiated with the addition of 1 μL 300 uM ATP. The reactions were allowed to proceed for 1 hr, after which 2 μL Glo Reagent (Promega V9101) was added and incubated for 40 minutes. Next, 4 μL Kinase Detection Reagent was added and incubated for 30 minutes. Luminescence was recorded using an EnVision microplate reader. […] The compounds were evaluated at 11 concentrations to determine IC50.
(§4) The lipid composition was 5 mol % DAG (Avanti 8008110), 40 mol % PS (Avanti 840035P), and 55 mol % PC (Avanti 850457) at a total lipid concentration of 15.2 mg/mL for the 4× liposome solution. The PC, DAG, and PS were dissolved in chloroform, combined, and dried in vacuo to a thin film. The lipids were hydrated to 20 mM in 50 mM MOPS pH 7.5, 100 mM NaCl, 5 mM MgCl2, and were freeze-thawed five times. The lipid suspension was extruded through a 100 nm polycarbonate filter eleven times. […] The liposome preparation was stored at 4° C. for as long as four weeks.
(§5) Baculovirus amplification was achieved using infected Sf9 cells at 1:1500 virus/cell ratios, and grown for 65 hours at 27° C. post-transfection.
(§6) The cells were lysed using nitrogen cavitation method with a nitrogen bomb (Parr Instruments), and the lysates were clarified by centrifugation. […] The three steps column chromatography included nickel affinity resin capture (i.e. HisTrap FF crude, GE Healthcare), followed by size exclusion chromatography (i.e. HiLoad 26/600 Superdex 200 prep grade, GE Healthcare for DGK-alpha, and HiPrep 26/600 Sephacryl S 300_HR, GE Healthcare for DGK-zeta). The third step was ion exchange chromatography, and differed for the two isoforms. DGKα was polished using Q-Sepharose anion exchange chromatography (GE Healthcare). DGKζ was polished using SP Sepharose cation exchange chromatography (GE Healthcare). The proteins were delivered at concentrations of ≥2 mg/mL. The formulation buffers were identical for both proteins: 50 mM Hepes, pH 7.2, 500 mM NaCl, 10% v/v glycerol, 1 mM TCEP, and 0.5 mM EDTA.
Target sequence in this assay (P23743 whole entry): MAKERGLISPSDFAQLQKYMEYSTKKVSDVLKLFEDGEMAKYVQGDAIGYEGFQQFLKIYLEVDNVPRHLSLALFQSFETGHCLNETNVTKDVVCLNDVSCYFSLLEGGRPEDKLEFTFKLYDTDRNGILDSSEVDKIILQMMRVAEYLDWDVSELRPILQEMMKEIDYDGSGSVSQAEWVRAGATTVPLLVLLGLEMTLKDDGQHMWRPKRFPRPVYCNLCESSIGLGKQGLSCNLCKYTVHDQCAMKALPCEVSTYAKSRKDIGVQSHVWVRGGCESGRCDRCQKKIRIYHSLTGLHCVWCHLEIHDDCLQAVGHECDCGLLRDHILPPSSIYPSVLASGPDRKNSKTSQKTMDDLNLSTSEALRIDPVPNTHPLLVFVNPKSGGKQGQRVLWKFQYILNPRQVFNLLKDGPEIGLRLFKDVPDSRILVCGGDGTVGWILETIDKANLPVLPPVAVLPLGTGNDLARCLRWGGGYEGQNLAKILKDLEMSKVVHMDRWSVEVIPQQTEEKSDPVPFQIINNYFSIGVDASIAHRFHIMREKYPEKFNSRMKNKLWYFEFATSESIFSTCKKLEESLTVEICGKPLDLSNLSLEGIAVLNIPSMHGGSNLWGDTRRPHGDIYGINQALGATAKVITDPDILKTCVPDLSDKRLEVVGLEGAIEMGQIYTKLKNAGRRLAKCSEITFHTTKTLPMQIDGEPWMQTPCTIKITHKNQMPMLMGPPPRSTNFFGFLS

[2] = molecular target: DGKζ (Homo sapiens (Human), UniProt Q13574); experiment: Assay 1 or 2: In Vitro DGK Inhibition Assays (DGKζ LIPGLO, extruded liposome); format: biochemical; settings: extruded liposome substrate, 150 μM ATP
Protocol: as §1, §2, §3, §4, §5, §6
(§7) Assay 2: In Vitro DGK Inhibition Assays—Method B
The DGKα and DGKζ reactions were performed using either extruded liposome (DGKα and DGKζ LIPGLO assays) or detergent/lipid micelle substrate (DGKα and DGKζ assays).

[3] = test system: Human whole blood IFN-γ; experiment: Assay 10: Human Whole Blood IFN-γ Assay; format: cell-based; settings: anti-CD3 and anti-CD28 stimulation, 100% = 3 μM reference compound, read-out: INFg Whole Blood Normalized Agonist EC50
Protocol: Assay 10: Human Whole Blood IFN-γ Assay
Human venous whole blood (22.5 μL per well), obtained from healthy donors, was pre-treated with compounds for one hour at 37° C. in a humidified 95% air/5% CO2 incubator. The blood was stimulated with 2.5 μL anti-human CD3 and anti-CD28 mAb at a final concentration of 1 μg/mL each for 24 hours at 37° C. IFN-7 in the supernatants was measured using AlphLISA kit (Cat #AL217).

[4] = test system: Human whole blood pERK; experiment: Assay 11: DGK Human Whole Blood pERK Assay; format: cell-based; settings: anti-CD3 stimulation, pERK positive within CD8 positive population, starting concentration 20 μM, read-out: DGK HWB pERK IC50
Protocol: Assay 11: DGK Human Whole Blood pERK Assay
Human whole blood ERK phosphorylation assay was performed with human venous whole blood obtained from healthy donors (drawn with Heparin as anti-coagulant). Serial dilutions of compounds (11 points, 3-fold) in DMSO were added to 384 well plates at 20 nL/well using an ECHO 550 acoustic dispenser (Labcyte) to achieve final starting concentration of 20 μM in assay. Heparinized human whole blood was added to the compound plate at 9 μL per well and incubated for one hour at 37° C. in a humidified 95%, air/5% CO2 incubator. After one hour of compound incubation, 1 μL of human anti-CD3 antibody (in-house) in the presence of cross-linking antibody goat anti-mouse IgG (4 μg/mL) was added to the well at 1 μg/mL final concentration for stimulation of pathway and additionally incubated for 15 minutes at 37° C. Stimulation was stopped by adding 90 μL Fix/Lyse buffer (BD 558049). Cells were washed and stained with anti-CD8 PE (BD 555635) antibodies for 60 minutes at room temperature, washed again, and permeabilized on ice using Perm III buffer (BD 558050) for 30 minutes. Cells were then stained with an Alexa Fluor® 647 anti-ERK1/2 Phospho (Thr202/Tyr204) Antibody (Bioleged 675504) for 60 minutes at 1:50 dilution. Samples were washed and resuspended in dPBS containing 1% BSA (dPBS, Gibco 14190136; BSA, Sigma-Aldrich A9205). Samples analyzed using the Intellicyt® iQue Screener PLUS. The pERK activation was quantitated by the percentage of pERK positive population within CD8 positive population.

[5] = molecular target: T1, DGKα; experiment: Assay 2: In Vitro DGK Inhibition Assays, Method B (DGKα ADPGLO); format: biochemical; settings: 150 μM ATP
Protocol: as §7
as §2, with “liposome reactions (5 mM total lipid).” for “liposome reactions.”, “were nM.” for “were 5 nM”
as §3, with “as follows: 25 nL droplets” for “as follows: 50 nL droplets”, “5 mL enzyme/lipid substrate solution at” for “5 mL enzyme/substrate solution at”, “μL 2× enzyme/lipid substrate solution was” for “μL 2× enzyme/substrate solution was”, “proceed for 2 hr, after” for “proceed for 1 hr, after”
Target sequence in this assay (P23743 other isoform, or with tags, fused parts or gaps): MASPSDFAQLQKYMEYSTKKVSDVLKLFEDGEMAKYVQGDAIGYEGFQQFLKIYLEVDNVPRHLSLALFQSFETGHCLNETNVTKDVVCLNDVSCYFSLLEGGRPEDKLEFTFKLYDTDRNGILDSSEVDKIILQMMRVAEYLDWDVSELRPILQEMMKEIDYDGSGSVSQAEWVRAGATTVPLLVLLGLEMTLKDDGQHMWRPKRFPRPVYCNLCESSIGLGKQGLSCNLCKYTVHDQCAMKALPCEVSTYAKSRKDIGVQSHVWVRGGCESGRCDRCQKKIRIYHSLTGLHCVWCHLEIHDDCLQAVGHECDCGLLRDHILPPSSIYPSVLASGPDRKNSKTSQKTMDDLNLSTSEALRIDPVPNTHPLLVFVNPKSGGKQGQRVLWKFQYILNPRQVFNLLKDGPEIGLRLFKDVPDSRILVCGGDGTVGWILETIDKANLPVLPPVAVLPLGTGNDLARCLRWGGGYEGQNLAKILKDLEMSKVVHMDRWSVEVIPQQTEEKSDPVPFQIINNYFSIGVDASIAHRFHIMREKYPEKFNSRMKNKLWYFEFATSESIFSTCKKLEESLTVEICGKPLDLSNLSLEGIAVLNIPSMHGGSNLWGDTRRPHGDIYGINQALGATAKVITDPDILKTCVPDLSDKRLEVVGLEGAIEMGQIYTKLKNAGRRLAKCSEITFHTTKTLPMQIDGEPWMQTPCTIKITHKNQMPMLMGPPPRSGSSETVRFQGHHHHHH
The detergent/lipid micelle was prepared by combining 15 g phosphatidylserine (Avanti 840035P) and 1 g diacylglycerol (8008110) and dissolving into 150 mL chloroform in a 2 L round bottom flask. Chloroform was removed under high vacuum by rotary evaporation. The resulting colorless, tacky oil was resuspended in 400 mL 50 mM MOPS pH 7.5, 100 mM NaCl, 20 mM NaF, 10 mM MgCl2, 1 μM CaCl2), 1 mM DTT, and 200 mM octyl glucoside by vigorous mixing. The lipid/detergent solution was split into 5 mL aliquots and stored at −80° C.
The lipid composition was 5 mol % DAG (Avanti 8008110), 40 mol % PS (Avanti 840035P), and 55 mol % PC (Avanti 850457) at a total lipid concentration of […] for the liposome solution. The PC, DAG, and PS were dissolved in chloroform, combined, and dried in vacuo to a thin film. The lipids were hydrated to 20 mM in 50 mM MOPS pH 7.5, 100 mM NaCl, 5 mM MgCl2, and were freeze-thawed five times. The lipid suspension was extruded through a 100 nm polycarbonate filter 10-12 times. Dynamic light scattering was carried out to confirm liposome size (50-60 nm radius). The liposome preparation was stored at 4° C. for as long as four weeks.
Human MA-hDGKα-(S9-S727)-Ct-TVMV-His-pFBgate and full length human DGK-ζ-transcript variant-2-TVMV-His-pFBgate baculovirus samples were generated using the Bac-to-Bac baculovirus expression system (Invitrogen) according to the manufacturer's protocol (note: MA- in name of DGKα reagents indicates two extra amino acids added prior to Ser-9). The DNA used for expression of the DGK-α(9-727) and DGK-C have SEQ ID NOs: 5 and 3, respectively. […]

DGKζ, sequence (Q13574 other isoform, or with tags, fused parts or gaps): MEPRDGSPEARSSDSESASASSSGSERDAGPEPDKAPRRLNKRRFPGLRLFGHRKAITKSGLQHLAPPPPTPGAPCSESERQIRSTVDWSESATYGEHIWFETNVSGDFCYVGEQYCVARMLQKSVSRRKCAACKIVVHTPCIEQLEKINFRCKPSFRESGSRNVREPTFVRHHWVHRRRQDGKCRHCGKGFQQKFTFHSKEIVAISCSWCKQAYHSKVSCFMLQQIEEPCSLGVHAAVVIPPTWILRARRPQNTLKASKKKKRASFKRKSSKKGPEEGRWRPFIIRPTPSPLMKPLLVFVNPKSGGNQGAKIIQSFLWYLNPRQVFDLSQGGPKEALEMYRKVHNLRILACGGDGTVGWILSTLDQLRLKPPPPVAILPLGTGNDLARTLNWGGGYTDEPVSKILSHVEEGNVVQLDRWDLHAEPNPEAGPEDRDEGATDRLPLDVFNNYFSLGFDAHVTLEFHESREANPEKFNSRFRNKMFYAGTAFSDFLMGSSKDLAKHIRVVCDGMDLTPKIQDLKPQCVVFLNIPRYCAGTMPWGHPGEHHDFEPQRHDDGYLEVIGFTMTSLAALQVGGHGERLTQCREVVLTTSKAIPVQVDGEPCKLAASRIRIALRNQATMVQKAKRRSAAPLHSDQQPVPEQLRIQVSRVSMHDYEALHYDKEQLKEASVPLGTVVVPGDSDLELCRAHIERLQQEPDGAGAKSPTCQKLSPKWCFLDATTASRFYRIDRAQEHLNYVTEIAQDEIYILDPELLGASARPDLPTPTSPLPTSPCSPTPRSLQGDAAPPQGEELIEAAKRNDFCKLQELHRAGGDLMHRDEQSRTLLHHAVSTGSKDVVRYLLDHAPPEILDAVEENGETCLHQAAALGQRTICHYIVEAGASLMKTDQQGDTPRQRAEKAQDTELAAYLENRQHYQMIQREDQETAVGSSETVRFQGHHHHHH

SMILES | IC50 [1] | IC50 [2] | IC50 [4] | IC50 ([4]; Homo sapiens, CD8 positive) | IC50 [5] | EC50 ([3]; Homo sapiens, 24 h) | EC50 ([3]; 24 hours)
CC(C)N(C)C(=O)CC(c1ccc(F)cc1)N1C[C@H](C)N(c2cc(=O)n(C)c3ccc(C#N)nc23)C[C@H]1C (stereo partly drawn) [Example 41, 3-[(2R,5S)-4-(6-cyano-1-methyl-2-oxo-1,2-dihydro-1,5-naphthyridin-4-yl)-2,5-dimethylpiperazin-1-yl]-3-(4-fluorophenyl)-N-methyl-N-(propan-2-yl)propanamide] | 1140 nM | 390 nM |  | 410 nM |  | 1590 nM | 
CC[C@H]1CN(C(C(=O)NCCOC)c2ccc(C(F)(F)F)cc2)[C@H](CC)CN1c1nc(=O)n(C)c2ccc(C#N)nc12 (single isomer, unassigned) [Example 55] |  |  |  |  | 10 nM |  | 
C#CCCC1(CCCOC(=O)C(c2ccc(OC)cc2)N2C[C@H](C)N(c3nc(=O)n(C)c4ccc(C#N)nc34)C[C@H]2C)N=N1 (single isomer, unassigned) [Example 60] |  |  |  |  | 180 nM |  | 

Continued, in another order:

IC50 [1] | IC50 [2] | IC50 [4] | IC50 ([4]; Homo sapiens, CD8 positive) | IC50 [5] | SMILES | EC50 ([3]; Homo sapiens, 24 h) | EC50 ([3]; 24 hours)
279000 nM | 9840 nM | 20000 nM |  |  | C[C@@H]1CN(c2cc(=O)n(C)c3ccc(C#N)nc23)[C@@H](C)CN1C(C(=O)Nc1ccn(C)n1)c1ccc(F)cc1 (stereo partly drawn) [Example 15, 2-((2R,5S)-4-(6-cyano-1-methyl-2-oxo-1,2-dihydro-1,5-naphthyridin-4-yl)-2,5-dimethylpiperazin-1-yl)-2-(4-fluorophenyl)-N-(1-methyl-1H-pyrazol-3-yl)acetamide] | 20000 nM | 
500 nM | 1340 nM | 5930 nM |  |  | C[C@@H]1CN(c2cc(=O)n(C)c3ccc(C#N)nc23)[C@@H](C)CN1C(C(=O)Nc1ccn(C)n1)c1ccc(F)cc1 (stereo partly drawn) [Example 16, 2-((2R,5S)-4-(6-cyano-1-methyl-2-oxo-1,2-dihydro-1,5-naphthyridin-4-yl)-2,5-dimethylpiperazin-1-yl)-2-(4-fluorophenyl)-N-(1-methyl-1H-pyrazol-3-yl)acetamide] |  | 14400 nM
 |  |  | 13100 nM |  | CNC(=O)C(c1ccc(F)cc1)N1C[C@H](C)N(c2cc(=O)n(C)c3ccc(C#N)nc23)C[C@H]1C (stereo partly drawn) [Example 26, 2-((2R,5S)-4-(6-cyano-1-methyl-2-oxo-1,2-dihydro-1,5-naphthyridin-4-yl)-2,5-dimethylpiperazin-1-yl)-2-(4-fluorophenyl)-N-methylacetamide] |  | 20000 nM
 |  |  | 80 nM |  | CC(C)OC(=O)C(c1ccc(F)cc1)N1C[C@H](C)N(c2cc(=O)n(C)c3ccc(C#N)nc23)C[C@H]1C (single isomer, unassigned) [Example 2] |  | 60 nM

Source: patent US12454531B2, “Substituted piperazine derivatives useful as T cell activators” (BRISTOL-MYERS SQUIBB COMPANY, priority 2019, dated 2025)
